Experimental data published in BindingDB's records for doi:10.1016/j.bmcl.2019.126886 (Tokyo University of Agriculture, 2020).

Assay: Inhibition of PKCbeta in rat RBL2H3 cells assessed as inhibition of mouse anti-DNP IgE-stimulated beta-hexosaminidase release preincubated for 15 mins followed by mouse anti-DNP IgE stimulation and measured after 3 hrs by 4-nitropheny1-2-acetamide-2-deoxy-beta-glucopyranoside substrate based colorimetric method

IC50: 10.4 µM
Compound: O=C1O/C(=C(/C(=O)O)c2ccc(O)c(O)c2)C(O)=C1c1ccc(O)c(O)c1
